Laboratory results: patent US9789096B2, “Methods and compositions for selective and targeted cancer therapy” (Board of Regents of the University of Texas System, priority 2013, dated 2017)

Tested on: HBEC30KT
Assay: Cell viability (ATP, Cell Titer Glo, 4 days), HBEC30KT
Format: cell-based, human
Conditions: Homo sapiens, 12-point dose-response starting at 50 micromolar, 3-fold increments, in duplicate; read-out: toxicity data, HBEC30KT
Procedure: (§1) FIG. 6A. […] Cell viability is plotted vs. compound concentration. Compound was added to cells plated at 15% confluence in 96-well plates in RPMI-1640 media supplemented with 5% Fetal Bovine Serum and 2 mM L-Glutamine. After 4 days of incubation, ATP levels were measured using Cell Titer Glo (Promega). Data are presented as the average of 2 replicates ±SEM.
(§2) Selectivity may be measured by the half maximal inhibitory concentration (IC50), which, as used herein, is a measure of the effectiveness of a compound in killing cells. This quantitative measure indicates how much of a particular compound is needed to kill a particular cell population by half (e.g., as indicated by the amount of ATP). […] The IC50 can be determined by constructing a dose-response curve. The lower the IC50, the higher the potency, and the greater the difference between IC50 values for different cell lines (e.g., sensitive lines vs. insensitive lines, and sensitive lines vs. normal lines) the greater the selectivity. […]

SMILES | IC50 [µM]
COc1ccccc1CCNC(=O)C(=O)Nc1ccc(Cl)cc1 [SW207004-1] | 49.5
O=C(NCCc1ccc(Br)cc1)C(=O)Nc1ccc(Cl)cc1 [SW207005-1] | 49.5
Cc1cccc(CCNC(=O)C(=O)Nc2ccc(Cl)cc2)c1 [SW207006-1] | 49.5
COc1ccc(CCNC(=O)C(=O)Nc2ccc(Cl)cc2)cc1OC [SW207007-1] | 49.5
O=C(NCCc1ccc(Cl)cc1)C(=O)Nc1ccc(Cl)cc1 [SW207008-1] | 49.5
COc1ccc(CCNC(=O)C(=O)Nc2ccccc2Br)cc1 [SW207009-1] | 49.5
COc1ccc(CCNC(=O)C(=O)Nc2ccc(OC(F)(F)F)c([N+](=O)[O-])c2)cc1 [SW207010-1] | 49.5
COc1ccc(CCNC(=O)C(=O)Nc2cc(Cl)ccc2OC)cc1 [SW207011-1] | 49.5
COc1ccc(CCNC(=O)C(=O)Nc2cc(C(F)(F)F)c(Br)c(C(F)(F)F)c2)cc1 [SW207012-1] | 18
COc1ccc(CCNC(=O)C(=O)Nc2ccc(Cl)cc2C(F)(F)F)cc1 [SW207013-1] | 49.5
COc1ccc(CCNC(=O)C(=O)Nc2ccc(C)c(Br)c2)cc1 [SW207014-1] | 49.5
COc1ccc(CCNC(=O)C(=O)Nc2ccc(C(F)(F)F)c(Br)c2)cc1 [SW207015-1] | 44.1
CCOc1cccc(NC(=O)C(=O)NCCc2ccc(OC)cc2)c1 [SW207016-1] | 49.5
COc1ccc(CCNC(=O)C(=O)Nc2ccc(C#N)cc2)cc1 [SW207017-1] | 49.5
COc1ccc(CCNC(=O)C(=O)NCc2ccc(OC)cc2)cc1 [SW207018-1] | 49.5

Same assay, conditions: Homo sapiens, Tables 3 and 4; read-out: HBEC30KT IC50

SMILES | IC50 [µM]
O=C(Nc1ccc([N+](=O)[O-])cc1F)c1sc2ccccc2c1Cl [SW202552] | 4950
COc1ccc2nc(NC(=O)CCc3ccccc3)sc2c1 [SW202751] | 376

Tested on: HCC44
Assay: Cell viability dose-response, HCC44
Format: cell-based, human
Conditions: Homo sapiens, HCC44, Table 8; 12-point dose-response starting at 50 micromolar
Outline: (§3)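 Cells at 15% confluence in RPMI-1640 with 5% FBS and 2 mM L-glutamine were exposed to compound for 4 days. Viability was measured as ATP by CellTiter-Glo. Dose-responses used 12 points from 50 micromolar in 3-fold steps, in duplicate; IC50 from dose-response curves.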

SMILES | AC50 [µM]
O=c1c(Oc2ccccc2F)coc2cc(OCc3cnn(-c4ccccc4)c3)ccc12 [SW043139] | 50

Tested on: H2073
Assay: Cell viability dose-response, H2073
Format: cell-based, human
Conditions: Homo sapiens, NCI-H2073, 12-point dose-response starting at 50 micromolar, 3-fold increments, in duplicate; read-out: toxicity data, H2073
Procedure: as §1, §2
With this information, we synthesized and tested a series of small molecules derived in conception from the oxalamide and chromone scaffold including N-acyl ureas, as shown in Tables 6-8. Each compound was tested in a 12-point dose-response study starting at 50 micromolar and decreasing in 3-fold increments to sub-nanomolar concentrations, in duplicate. Additionally, one or more additional cell line was tested in the same way.

SMILES | IC50 [µM]
C#CCOc1ccc(C(=O)c2ccc(NC(=O)C(=O)NCCc3ccccc3)cc2)cc1 [SW211560-1] | 22.7

Same assay, conditions: Homo sapiens, NCI-H2073, Tables 3 and 4; read-out: IC50 (uM) vs indicated non-small cell lung cancer cell line H2073

SMILES | IC50 [µM]
COc1ccc2nc(NS(=O)(=O)c3ccc(Br)cc3)sc2c1 [SW166942] | 47.6
COc1ccc2nc(NS(=O)(=O)c3ccc(C(F)(F)F)cc3)sc2c1 [SW202746] | 38
COc1ccc2nc(NS(=O)(=O)CC34CCC(CC3=O)C4(C)C)sc2c1 (stereo not shown) [SW202752] | 110
O=C(Nc1nc2ccccc2s1)c1cccc([N+](=O)[O-])c1 [SW209205-1] | 49.5
O=C(Nc1nc2ccccc2[nH]1)c1ccc([N+](=O)[O-])cc1 [SW209206-1] | 49.5

Same assay, conditions: Homo sapiens, NCI-H2073; Table 8; 12-point dose-response starting at 50 micromolar

SMILES | AC50 [µM]
O=c1c(Oc2ccccc2F)coc2cc(OCc3cnn(-c4ccccc4)c3)ccc12 [SW043139] | 50

Tested on: H2122
Assay: Cell viability dose-response, H2122
Format: cell-based, human
Conditions: Homo sapiens, NCI-H2122, 12-point dose-response starting at 50 micromolar, 3-fold increments, in duplicate; read-out: toxicity data, H2122
Outline: (§4)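 Viability read as total ATP (Cell Titer Glo) following 4 days' compound exposure, with IC50 derived from dose-response curves. Duplicate 12-point series, top concentration 50 micromolar with 3-fold steps, on cells seeded at 15% confluence in RPMI-1640, 5% FBS, 2 mM L-glutamine.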

SMILES | IC50 [µM]
COc1ccccc1CCNC(=O)C(=O)Nc1ccc(Cl)cc1 [SW207004-1] | ≥ 49.5
O=C(NCCc1ccc(Br)cc1)C(=O)Nc1ccc(Cl)cc1 [SW207005-1] | ≥ 49.5
Cc1cccc(CCNC(=O)C(=O)Nc2ccc(Cl)cc2)c1 [SW207006-1] | ≥ 49.5
COc1ccc(CCNC(=O)C(=O)Nc2ccc(Cl)cc2)cc1OC [SW207007-1] | ≥ 49.5
O=C(NCCc1ccc(Cl)cc1)C(=O)Nc1ccc(Cl)cc1 [SW207008-1] | ≥ 49.5
COc1ccc(CCNC(=O)C(=O)Nc2ccccc2Br)cc1 [SW207009-1] | ≥ 49.5
COc1ccc(CCNC(=O)C(=O)Nc2ccc(OC(F)(F)F)c([N+](=O)[O-])c2)cc1 [SW207010-1] | 0.331
COc1ccc(CCNC(=O)C(=O)Nc2cc(Cl)ccc2OC)cc1 [SW207011-1] | ≥ 49.5
COc1ccc(CCNC(=O)C(=O)Nc2cc(C(F)(F)F)c(Br)c(C(F)(F)F)c2)cc1 [SW207012-1] | 11.8
COc1ccc(CCNC(=O)C(=O)Nc2ccc(Cl)cc2C(F)(F)F)cc1 [SW207013-1] | ≥ 49.5
COc1ccc(CCNC(=O)C(=O)Nc2ccc(C)c(Br)c2)cc1 [SW207014-1] | 0.89
COc1ccc(CCNC(=O)C(=O)Nc2ccc(C(F)(F)F)c(Br)c2)cc1 [SW207015-1] | 0.456
CCOc1cccc(NC(=O)C(=O)NCCc2ccc(OC)cc2)c1 [SW207016-1] | 23.8
COc1ccc(CCNC(=O)C(=O)Nc2ccc(C#N)cc2)cc1 [SW207017-1] | 0.712
COc1ccc(CCNC(=O)C(=O)NCc2ccc(OC)cc2)cc1 [SW207018-1] | ≥ 49.5
C#CCOc1ccc(C(=O)c2ccc(NC(=O)C(=O)NCCc3ccccc3)cc2)cc1 [SW211560-1] | ≥ 49.5

Same assay, conditions: Homo sapiens, NCI-H2122, Table 8; 12-point dose-response starting at 50 micromolar

SMILES | AC50 [µM]
O=c1c(Oc2ccccc2F)coc2cc(OCc3cnn(-c4ccccc4)c3)ccc12 [SW043139] | 0.166

Same assay, conditions: Homo sapiens, NCI-H2122, Tables 3 and 4; read-out: IC50 (uM) vs indicated non-small cell lung cancer cell line H2122

SMILES | IC50 [µM]
COc1ccc2nc(NS(=O)(=O)c3ccc(Br)cc3)sc2c1 [SW166942] | 59.6
O=C(Nc1ccc([N+](=O)[O-])cc1F)c1sc2ccccc2c1Cl [SW202552] | 122
COc1ccc2nc(NS(=O)(=O)c3ccc(C(F)(F)F)cc3)sc2c1 [SW202746] | 46.1
O=C(Nc1nc2ccccc2s1)c1cccc([N+](=O)[O-])c1 [SW209205-1] | 0.397
O=C(Nc1nc2ccccc2[nH]1)c1ccc([N+](=O)[O-])cc1 [SW209206-1] | ≥ 49.5

Tested on: H1819
Assay: Cell viability dose-response, H1819
Format: cell-based, human
Conditions: Homo sapiens, NCI-H1819, 12-point dose-response starting at 50 micromolar, 3-fold increments, in duplicate; read-out: toxicity data, H1819
Outline: as §4

SMILES | IC50 [µM]
COc1ccccc1CCNC(=O)C(=O)Nc1ccc(Cl)cc1 [SW207004-1] | ≥ 49.5
O=C(NCCc1ccc(Br)cc1)C(=O)Nc1ccc(Cl)cc1 [SW207005-1] | ≥ 49.5
Cc1cccc(CCNC(=O)C(=O)Nc2ccc(Cl)cc2)c1 [SW207006-1] | ≥ 49.5
COc1ccc(CCNC(=O)C(=O)Nc2ccc(Cl)cc2)cc1OC [SW207007-1] | ≥ 49.5
O=C(NCCc1ccc(Cl)cc1)C(=O)Nc1ccc(Cl)cc1 [SW207008-1] | ≥ 49.5
COc1ccc(CCNC(=O)C(=O)Nc2ccccc2Br)cc1 [SW207009-1] | ≥ 49.5
COc1ccc(CCNC(=O)C(=O)Nc2ccc(OC(F)(F)F)c([N+](=O)[O-])c2)cc1 [SW207010-1] | ≥ 49.5
COc1ccc(CCNC(=O)C(=O)Nc2cc(Cl)ccc2OC)cc1 [SW207011-1] | ≥ 49.5
COc1ccc(CCNC(=O)C(=O)Nc2cc(C(F)(F)F)c(Br)c(C(F)(F)F)c2)cc1 [SW207012-1] | ≥ 49.5
COc1ccc(CCNC(=O)C(=O)Nc2ccc(Cl)cc2C(F)(F)F)cc1 [SW207013-1] | ≥ 49.5
COc1ccc(CCNC(=O)C(=O)Nc2ccc(C)c(Br)c2)cc1 [SW207014-1] | ≥ 49.5
COc1ccc(CCNC(=O)C(=O)Nc2ccc(C(F)(F)F)c(Br)c2)cc1 [SW207015-1] | ≥ 49.5
CCOc1cccc(NC(=O)C(=O)NCCc2ccc(OC)cc2)c1 [SW207016-1] | ≥ 49.5
COc1ccc(CCNC(=O)C(=O)Nc2ccc(C#N)cc2)cc1 [SW207017-1] | ≥ 49.5
COc1ccc(CCNC(=O)C(=O)NCc2ccc(OC)cc2)cc1 [SW207018-1] | ≥ 49.5
C#CCOc1ccc(C(=O)c2ccc(NC(=O)C(=O)NCCc3ccccc3)cc2)cc1 [SW211560-1] | ≥ 49.5

Same assay, conditions: Homo sapiens, NCI-H1819, Tables 3 and 4; read-out: IC50 (uM) vs indicated non-small cell lung cancer cell line H1819

SMILES | IC50 [µM]
COc1ccc2nc(NS(=O)(=O)c3ccc(Br)cc3)sc2c1 [SW166942] | 46.7
COc1ccc2nc(NS(=O)(=O)c3ccc(C(F)(F)F)cc3)sc2c1 [SW202746] | 36
COc1ccc2nc(NC(=O)CCc3ccccc3)sc2c1 [SW202751] | 995
COc1ccc2nc(NS(=O)(=O)CC34CCC(CC3=O)C4(C)C)sc2c1 (stereo not shown) [SW202752] | 166
O=C(Nc1nc2ccccc2s1)c1cccc([N+](=O)[O-])c1 [SW209205-1] | 0.468
O=C(Nc1nc2ccccc2[nH]1)c1ccc([N+](=O)[O-])cc1 [SW209206-1] | ≥ 49.5

Same assay, conditions: Homo sapiens, NCI-H1819; Table 8; 12-point dose-response starting at 50 micromolar

SMILES | AC50 [µM]
O=c1c(Oc2ccccc2F)coc2cc(OCc3cnn(-c4ccccc4)c3)ccc12 [SW043139] | 50

Tested on: H2009
Assay: Cell viability dose-response, H2009
Format: cell-based, human
Conditions: Homo sapiens, NCI-H2009; Tables 3 and 4; read-out: IC50 (uM) vs indicated non-small cell lung cancer cell line H2009
Outline: as §3

SMILES | IC50 [µM]
COc1ccc2nc(NS(=O)(=O)c3ccc(Br)cc3)sc2c1 [SW166942] | 78.6
COc1ccc2nc(NS(=O)(=O)c3ccc(C(F)(F)F)cc3)sc2c1 [SW202746] | 42.7
COc1ccc2nc(NS(=O)(=O)CC34CCC(CC3=O)C4(C)C)sc2c1 (stereo not shown) [SW202752] | 4950
